The source of these data is patent publication US20210177879A1, “VITAMIN D RECEPTOR AGONIST” (Guanghzou University of Chinese Medicine, priority 2018, published 2021).

In one assay the test system is SRC. As to the kind of experiment: Detection of acting target of monotropein: SRC (Western blot). Type of assay: in vivo, Balb/c mice. The note with it: colon of AOM/DSS mice. Here is the method:
(§1) Experimental method: 90 Balb/c mice of 6-8 weeks were purchased from the Experimental Animal Center in Guangzhou University of Chinese Medicine, weighed about 18-22 g, and subjected to adaptive feeding for 10 days. Modeling was divided into three stages. In the first stage, except for the normal group of animals being given saline injection, each of the other animals were intraperitoneally injected with a carcinogen AOM (10 mg/kg), and given free access to 2% DSS water from the next day for 7 days, and then given access to replaced regular drinking water for 14 days. In the second stage, the animals were given free access to 2% DSS water for 10 days, and then given access to replaced regular drinking water for 14 days. In the third stage, the animals were given free access to 2% DSS water for 10 days, and then given access to replaced regular drinking water for 11 days. The normal group was given access to regular drinking water throughout the experiment. The diet, water drinking and body weights of the animals were recorded daily and DAI scores were made, and the animals were killed and harvested at the 10th week. […]
(§2) A potential acting target of monotropein for interfering with the colon cancer was detected.

For another assay, the system named is intestinal permeability. Description: Determination of intestinal permeability in serum with FITC-dextran. It is filed as in vivo, Balb/c mice. The note with it: after third stage of modeling; monotropein high and low doses, 5-ASA 100 mg/kg. As for the experimental part:
Experimental method: 90 Balb/c mice of 6-8 weeks were purchased from the Experimental Animal Center in Guangzhou University of Chinese Medicine, weighed about 18-22 g, and subjected to adaptive feeding for 10 days. Modeling was divided into three stages. In the first stage, except for the normal group of animals being given saline injection, each of the other animals were intraperitoneally injected with a carcinogen AOM (10 mg/kg), and given free access to 2% DSS water from the next day for 7 days, and then given access to replaced regular drinking water for 14 days. In the second stage, the animals were given free access to 2% DSS water for 10 days, and then given access to replaced regular drinking water for 14 days. In the third stage, the animals were given free access to 2% DSS water for 10 days, and then given access to replaced regular drinking water for 11 days. […] The diet, water drinking and body weights of the animals were recorded daily and DAI scores were made, and the animals were killed and harvested at the 10th week. […] 25 μl of serum was taken and added with 100 μl PBS, and determined on a microplate reader for its fluorescence intensity, where the wavelength of the exciting light was 480 nm, and the wavelength of the emitting light was 520 nm. A standard curve was made and the sample concentration was calculated.

The test system of assay [1] is SW1990 breast cancer cells. As to the kind of experiment: In vitro proliferation inhibition of SW1990 breast cancer cells. The note with it: concentration of 1 uM; compared with blank control group. Type of assay: cell-based. As for the experimental part:
(§3) The SW1990 cells were thawed, and cultured in a changed medium after 24 hours. Medium preparation method: 6% serum, 1% of a bispecific antibody+a 1640 basal medium. After grown to confluent, the cells were digested and subcultured to expand the number of cells. When reached the required amount, the cells were digested by trypsin, centrifuged, and resuspended in PBS to prepare a cell suspension of 1×10^8 cells/ml. A part of the cell suspension was added with the monotropein, desacetyl asperulosidic acid, asperuloside, and asperulosidic acid respectively, and the inhibition rate (%) of tumor cell proliferation by each of these different compounds was examined.

For another assay, the system named is Aktl. As to the kind of experiment: Detection of acting target of monotropein: Aktl (Western blot). It is filed as in vivo, Balb/c mice. The note with it: colon of AOM/DSS mice. Here is the method: as §1, §2
Assay [2] has as its system transplanted tumor of SW1990 breast cancer cells. As to the kind of experiment: Transplanted tumor of SW1990 breast cancer cells in nude mice. It is filed as in vivo. The following applies: 2 mg/kg in combination with 5-fluorouracil at half dose (20 mg/kg), once a day; effect comparable to 5-fluorouracil alone 40 mg/kg. Here is the method: as §3
Male adult nude mice, which had the body weights of 20-24 g, were purchased from Guangdong Medical Laboratory Animal Center. After 7 days of adaptive feeding of the animals, except for the blank group, the remaining animals were injected with 0.2 ml of a SW1990 cell suspension in PBS at ventrodorsal and scapula sites of them, the response conditions of the animals were observed, and the body weights of the animals were determined once a week. After 2 weeks of observation, the animals were grouped into the following groups according to tumor size: a blank group; a model group; a 5-fluorouracil control group (5-Full, 40 mg/kg); monotropein+5-fluorouracil (2 mg/kg monotropein+20 mg/kg 5-fluorouracil), desacetyl asperulosidic acid+5-fluorouracil (2 mg/kg desacetyl asperulosidic acid+20 mg/kg 5-fluorouracil), asperuloside+5-fluorouracil (2 mg/kg asperuloside+20 mg/kg 5-fluorouracil), asperulosidic acid+5-fluorouracil (2 mg/kg asperulosidic acid+20 mg/kg 5-fluorouracil), these groups being labeled as: Mo, As, Aa, Da. Each group included 8 animals; and administration was conducted once a day.
The status, death conditions, and eating and drinking conditions of the animals were observed daily. The body weights of the animals were determined once a week and the tumor size of the animals was determined every 4 days. The tumor volume of the animals was determined by using a vernier caliper. After 1 month of administration, the animals were sacrificed after blood was sampled from the orbit thereof, and the tumor was separated and weighed.

`O=C(O)C1=CO[C@@H](O[C@@H]2O[C@H](CO)[C@@H](O)[C@H](O)[C@H]2O)[C@H]2[C@@H]1C=C[C@]2(O)CO` [monotropein]: in the assay with SRC, the “effect on SRC, Western blot” value is listed as “no significant effect”. In the assay on intestinal permeability, the “intestinal permeability (FITC-dextran in serum) vs model group” value is “significant differences”. For the same compound, the “proliferation of SW1990 cells in vitro” value in assay [1] is reported as “significantly inhibit the proliferation”. Moreover, in the assay on Aktl, the “effect on Aktl, Western blot” value is given as “no significant effect”. Besides, the “tumor proliferation in SW1990 tumor-bearing mice” value in assay [2] is given as “significantly inhibit tumor proliferation”.
